Literature values, collected in paper PMC11328599, “Crystal structure of dihydroneopterin aldolase from Mycobacterium tuberculosis associated with 8-mercaptoguanine, and development of novel S8-functionalized analogues as inhibitors: Synthesis, enzyme inhibition, in vitro toxicity and antitubercular activity” (Journal of Enzyme Inhibition and Medicinal Chemistry, 2024).

Target: T1, MtFolB (Mycobacterium tuberculosis, UniProt P9WNC5)
T1 construct: made in house
Set-up: method as in PMID 33752554
Settings: previously reported; cited from earlier work

T1 sequence (P9WNC5 whole entry): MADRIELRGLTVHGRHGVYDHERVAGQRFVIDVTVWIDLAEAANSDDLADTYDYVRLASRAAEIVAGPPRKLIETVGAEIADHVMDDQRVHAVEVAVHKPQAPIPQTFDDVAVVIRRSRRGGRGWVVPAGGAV

In the case of `Nc1nc2nc(S)[nH]c2c(=O)[nH]1` [Compound 8-MG, 8-mercaptoguanine], the Inhibition mode is given as “non-competitive”.
